The results in this text go back to patent US20160031909A1, “PORPHYRAZINE OPTICAL AND DUAL OPTICAL/ MR CONTRAST AND THERAPEUTIC AGENTS” (HOFFMAN/BARRETT, LLC, priority 2013, published 2016).

This data set in a line: Relaxation time measurements (longitudinal relaxivity r1). The class given is physicochemical. From the text:
The efficiency of a contrast agent in reducing the longitudinal relaxation time of water protons is defined in terms as relaxivity (mM^−1 s^−1) (14). It has been predicted by Solomon-Bloembergen-Morgan theory that a slow molecule tumbling of an MRI agent causes an increase in rotational correlation time, Tr, which in turn results in increase in relaxivity (14, 15). A common approach to increase relaxivity by slowing down the molecular tumbling is to attach Gd(III) complexes to a macromolecule through rigid linkages (12,16). The relaxivity of the monomeric DOTA-Gd(III) (DOTA is 1,4,7,10-tetraazacyclododecane-N,N,N″,N″-tetraacetic acid) used in the clinic is shown for comparison (17). […] Both the Zn-Pz-Gd(III) and Cu-Pz-Gd(III) had higher longitudinal relaxivity than DOTAGd(III).
Solutions of M-Pz-Gd(III) (M=Zn, Cu) conjugates were dissolved in 500 μL of filtered, deionized H20 (18.2 MΩ·cm) for T1 acquisition. Relaxation times were measured on a Bruker mq60 NMRanalyzer equipped with Minispec v2.51 Rev.00/NT software (Bruker Biospin, Billerica, Mass., USA) operating at 1.41 T (60 MHz) and 37° C. T1 relaxation times were measured using an inversion recovery pulse sequence (T1—ir_mb) using the following parameters: 4 scans per point, 10 data points for fitting, mono-exponential curve fitting, phase cycling, 10 ms first pulse separation, and a recycle delay and final pulse separation≧5 T1. The gadolinium concentrations of each solution were determined using ICP-MS. The inverse of the longitudinal relaxation time (1/ T1, s^−1) was plotted against gadolinium concentration (mM) and fitted to a straight line with an R^2>0.99. The slope of the fitted line was recorded as the relaxivity, r1.

Turning to “Cu[Pz(C19H28N8O7Gd)2]. Pz=18,21-bis(2-(1H-1,2,3-triazole-4-yl) ethoxy)-tris-[1,4-dioxino[g,l,q](2R,3R)-2,3-dimethoxy-2,3-dimethyll 25H,27H-benzo[b]porphyrazine; C19H28N8O7Gd=N-methyl-2-aminoacetamide-4,7,10-tris(carboxymethyl)-1,4,7,10-tetraazacyclododecylgadolinium(III)) [Cu-Pz-Gd(III)]”, the “solution-phase ionic relaxivity relative to DOTA-Gd(III)” value (compared with clinically-used monomeric DOTA-Gd(III)) is “about four times greater”. For the same substance, for the setting “per Gd(III), water, 1.41 T (60 MHz), 37° C.”, the “Ionic r1” value is listed as 11.5 mM^−1 S^−1. The “Molecular r1” value (per molecule (2 Gd(III)), water, 1.41 T (60 MHz), 37° C.) came to 23.0 mM^−1 S^−1. Under “text of b56, unit inferred”, this substance gave a solution phase molecular relaxivity (r1) of 23 mM⁻¹ s⁻¹.
